# Literature values as cited in the CATMoS acute toxicity set (Mansouri et al. 2021).
# Several values for one entry are separate records, joined by “and”; a condition that tells them apart may be missing. Equal values may be shown once.
# Test: rat acute oral toxicity
# Conditions: in vivo
# Source text: […]The data set underlying the modeling effort for this project was initially compiled by NICEATM and U.S. EPA’s CCTE. Briefly, LD50 data were collected from rat acute oral systemic toxicity tests, including limit tests, ranges/confidence intervals, and discrete LD50 values. The full data set included 21,200 LD50 entries for 15,688 substances. […] Data were reviewed to ensure that LD50 values with obvious errors in the extracted data such as unit conversion errors (e.g., comma and decimal separator misplacements) were either fixed or removed. After this review, 16,209 LD50 values remained. Many of the chemicals represented had multiple LD50 entries, requiring that a single representative value per Chemical Abstracts Service Registry Number (CASRN) identifier be defined to facilitate modeling efforts. Based on ATWG feedback and to define the representative LD50 as a protective value while accounting for the distribution across multiple LD50s, the median of the lowest quartile was computed using only discrete LD50 values (omitting limit test data and range and confidence interval data). A detailed summary of the data compilation is available online on the NICEATM webpage dedicated to the collaborative modeling project (NTP 2020).
# […][…] For categorical designations, limit test and range/confidence interval LD50 data were integrated wherever possible. As such, the number of chemicals with end point values/calls varies across the modeling end points (Table 3) based on whether chemicals had representative LD50 values and/or other data. If a chemical had both, the representative value was used to determine categorical calls rather than limit test data. Some data were useable only for certain end points and categories depending on the thresholds. For example, ranges that spanned multiple hazard categories were considered only for the binary (very toxic/nontoxic) end points and omitted from rendering a determination for hazard category assignment.
# […]The final data set comprising 11,992 chemicals was split into training and evaluation sets […], respectively. This process was performed semirandomly by ordering chemicals based on the five end points (categorical and continuous LD50 values) and partitioning every fourth record into the evaluation set accordingly. This approach was taken to ensure an equivalent distribution of the LD50 values and the different hazard categories between the training and the evaluation sets without supervised sampling of the chemicals based on structures (Figure 1A). The sources of the chemical structures were also kept equivalent between the two sets, with chemical structures obtained from DSSTox, being the highest quality, representing over 75% of each set (Figure 1B).
row,SMILES,LD50
1,C=CCN1CC[C@]23c4c5ccc(O)c4O[C@H]2[C@@H](O)C=C[C@H]3[C@H]1C5,1150 mg/kg
2,CCCC(CCC)C(=O)O,670 mg/kg
3,CC(CC(C)(C)O)OCCC#N (stereo not drawn),3200 mg/kg
4,CC(C)C(Br)C(=O)OC(C)C(Cl)(Cl)Cl (stereo not drawn),1200 mg/kg
5,CCCCOC(=O)N(C)SN(C)C(=O)Oc1cccc2c1OC(C)(C)C2,53 mg/kg
6,CC1=C(C(=O)OCCN2CCN(C(c3ccccc3)c3ccccc3)CC2)C(c2cccc([N+](=O)[O-])c2)C(P2(=O)OCC(C)(C)CO2)=C(C)N1 (stereo not drawn),194 mg/kg
7,c1ccc(C2=NCOCS2)cc1,650 mg/kg
8,Oc1c(Cl)cc(Cl)c(Cl)c1Cc1c(O)c(Cl)cc(Cl)c1Cl,59.2 mg/kg
9,CCOC(=O)[C@H](CCc1ccccc1)N[C@@H](C)C(=O)N1Cc2cc(OC)c(OC)cc2C[C@H]1C(=O)O,4020 mg/kg
10,CCCC(C)(C)C(=O)Nc1ccc(Cl)cc1,2600 mg/kg
11,O=[N+]([O-])c1cc(Cl)cc2[nH]c(C(F)(F)F)nc12,2.78 mg/kg
12,Cc1c(-c2ccccc2)oc2c(C(=O)OC(C)(C)CN3CCCCC3)cccc2c1=O,1980 mg/kg
13,CCOP(=S)(OC)SCN1C(=O)c2ccccc2C1=O (stereo not drawn),50 mg/kg
14,COc1ccc2nc3c(c(N)c2c1)CCCC3,753 mg/kg
15,CC[C@@H](COC(=O)c1cc(OC)c(OC)c(OC)c1)N(C)CCN(C)[C@@H](CC)COC(=O)c1cc(OC)c(OC)c(OC)c1,1500 mg/kg
16,Cc1ccc2ccccc2c1,1630 mg/kg
17,CCN(N=O)C(C)OC (stereo not drawn),1000 mg/kg
18,O=S(=O)(O)c1c(Cl)c(Cl)c(Cl)c2[nH]c(C(F)(F)F)nc12,218 mg/kg
19,O=C(O)CCC(=O)OCC1COC(C(Cl)(Cl)Cl)O1 (stereo not drawn),3400 mg/kg
20,Cc1ccccc1C(OC1CC2CCC(C1)N2C)c1ccccc1 (stereo not drawn),400 mg/kg
21,CCc1ccc(C)nc1,368 mg/kg

row,SMILES,LD50
1,ClC(Cl)(Cl)c1ccc(C(Cl)(Cl)Cl)cc1,3200 mg/kg
2,COCCO[Si](CCCl)(OCCOC)OCCOC,878 mg/kg
3,Cc1nc(C)c(C(=O)Nc2ccccc2)s1,3930 mg/kg
4,O=C(O)CCCCCC(=O)O,7000 mg/kg
5,CC(=O)Nc1ccc(N=NN(C)C)cc1,510 mg/kg
6,CC(C)(C)NCC(O)c1cc(Cl)c(N)c(C(F)(F)F)c1 (stereo not drawn),306 mg/kg
7,C[C@H](CCc1ccccc1)NC[C@H](O)c1ccc(O)c(C(N)=O)c1,1030 mg/kg
8,CC(=O)Nc1ccccc1,800 mg/kg
9,CN1CCN(C(=O)Cn2c(=O)sc3ccc(Cl)cc32)CC1,640 mg/kg
10,CNC(=O)ON=CC(C)(C)OC,15 mg/kg
11,CCCN1CCCC1=Nc1ccc(Cl)c(Cl)c1,2120 mg/kg
12,COC(F)(F)C(F)Cl (stereo not drawn),5130 mg/kg
13,CCOc1cc(C(C)(C)C)ccc1C1COC(c2c(F)cccc2F)=N1 (stereo not drawn),4270 mg/kg
14,N#CC(Cl)=C(Cl)Cl,62.5 mg/kg
15,CC(Cl)(Cl)[N+](=O)[O-],410 mg/kg
16,CCOc1occ2cnc(C)c(O)c12,2150 mg/kg
17,Cc1ccc(N(CC2=NCCN2)c2cccc(O)c2)cc1,1250 mg/kg
18,CC(Cl)CO (stereo not drawn),218 mg/kg
19,O=Cc1ccc2c(c1)OCO2,2700 mg/kg
20,CCCCOC(=O)COC(=O)c1ccccc1C(=O)OCCCC,7000 mg/kg
21,CCOC(=O)C1CC(=O)C(=C(O)C2CC2)C(=O)C1 (stereo not drawn),4460 mg/kg

row,SMILES,LD50
1,CN(C)C=Nc1c(I)cc(I)c(CCC(=O)O)c1I,2500 mg/kg and 1030 mg/kg
2,CC(=O)Nc1ccc(S(=O)(=O)Nc2cc(C)on2)cc1,8400 mg/kg
3,CCCCCCCC/C=C\CCCCCCCC(=O)NCC[N+]1(C)CCN=C1CCCCCCC/C=C\CCCCCCCC (stereo not drawn),24400 mg/kg
4,O=C(O)C(F)(F)C(F)F,8570 mg/kg
5,CCCCSC(C)C1(CC)C(=O)N=C(O)NC1=O (stereo not drawn),582 mg/kg
6,CCOCCOCC(C)O (stereo not drawn),9330 mg/kg
7,COc1cc(N)c(C)cc1N(C)C,29.7 mg/kg
8,CC(=O)SCC[N+](C)(C)C,100 mg/kg
9,CC(C1=C(CCN(C)C)Cc2ccccc21)c1ccccn1 (stereo not drawn),618 mg/kg
10,C=CC1OCC2(CO1)COC(C=C)OC2 (stereo not drawn),3250 mg/kg
11,CC(=O)Nc1ccc(C(=O)CCl)cc1,2150 mg/kg
12,COP(=O)(OC)SC(C)C,108 mg/kg
13,COP(=S)(OC)SCC(N)=O,925 mg/kg
14,CCCCCCCCCCCCCCCC(=O)OCC(=O)[C@@]1(O)[C@H](C)C[C@H]2[C@@H]3CCC4=CC(=O)C=C[C@]4(C)[C@@]3(F)[C@@H](O)C[C@@]21C,315 mg/kg
15,CCCCCOc1ccc(C2SC(=O)NC2=O)cc1OCC (stereo not drawn),4330 mg/kg
16,COC(=O)C(=O)C(O)=C(O)OC,8000 mg/kg
17,FC(F)(F)c1ccc(Cl)c(Cl)c1,1150 mg/kg
18,CCOC(C1=NCC(C)(C)CN1)c1ccc(OC)c(F)c1 (stereo not drawn),320 mg/kg
19,CCNC(=O)C(SP(=S)(OC)OC)C(=O)NCC,1000 mg/kg
20,COP(N)(=S)OC,410 mg/kg
21,CC(=O)OC[C@H]1O[C@@H](n2ncc(=O)[nH]c2=O)[C@H](OC(C)=O)[C@@H]1OC(C)=O,12000 mg/kg
